Data published in US6525001B1, “Substituted pyrimidine and pyridine herbicides” (Mid-American Commercialization Corporation, priority 1997, dated 2003).

Experiments:
Assay type in all cases: in vivo
Design in all cases: key: 0 is no effect; 10 is complete control
[1] = tested on: crabgrass (Digitaria sanguinalis); experiment: Test B pre-/postemergence
Procedure, shortened: (§1)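 Seeds were planted and sprayed preemergence, while plants at 2 to 18 cm (1- to 4-leaf stage) were sprayed postemergence at the same time, with test chemical in a non-phytotoxic solvent mixture containing surfactant. After twelve to sixteen days in a greenhouse, injury was rated visually against untreated controls on a 0–10 scale.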

[2] = tested on: wheat (Triticum aestivum); experiment: Test B pre-/postemergence
Procedure, shortened: as §1

[3] = tested on: cocklebur (Xanthium strumarium); experiment: Test B pre-/postemergence
Procedure, shortened: as §1

rape (Brassica napus) = experiment: Test B pre-/postemergence
Procedure, shortened: as §1

[4] = tested on: pigweed (Amaranthus retroflexus); experiment: Test B pre-/postemergence
Procedure, shortened: as §1

[5] = tested on: purple nutsedge (Cyperus rotundus); experiment: Test B pre-/postemergence; conditions: for Plant response rating, Nutsedge: Preemergence; for Nutsedge plant response rating: Postemergence
Procedure, shortened: as §1

corn (Zea mays) = experiment: Test B pre-/postemergence
Procedure, shortened: as §1

[6] = tested on: sugar beet (Beta vulgaris); experiment: Test B pre-/postemergence
Procedure, shortened: as §1

[7] = tested on: velvetleaf (Abutilon theophrasti); experiment: Test B pre-/postemergence
Procedure, shortened: as §1

soybean (Glycine max) = experiment: Test B pre-/postemergence
Procedure, shortened: as §1

[8] = tested on: blackgrass (Alopecurus myosuroides); experiment: Test B pre-/postemergence
Procedure, shortened: as §1

[9] = tested on: duck salad (Heteranthera limosa); experiment: Test B flood test; conditions: for Plant response rating, Ducksalad: Postemergence (flood test species)
Procedure, shortened: (§2)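 Plants were grown to the 2-leaf stage before treatment with test chemical, then held in a greenhouse for twelve to sixteen days. Injury was visually rated against untreated controls on a 0–10 scale, where 0 is no effect and 10 is complete control.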

rice (Oryza sativa) = experiment: Test B flood test; conditions: for Plant response rating, Rice: Postemergence (flood test species)
Procedure, shortened: as §2

[10] = tested on: smallflower flatsedge (Cyperus difformis); experiment: Test B flood test; conditions: for Plant response rating, S. Flatsedge: Postemergence (flood test species)
Procedure, shortened: as §2

[11] = tested on: bamyardgrass (Echinochloa crus-galli); experiment: Test B flood test; conditions: for Plant response rating, Barnyardgrass: Postemergence (flood test species)
Procedure, shortened: as §2

[12] = Preemergence, Rate 62 g/ha, scale of 0 to 10
[13] = Rate 62 g/ha, Postemergence (flood test)
[14] = Rate 125 g/ha, Postemergence section (flood test species)

Compound: Cc1cnc(-n2ccc(C(F)(F)C(F)(F)F)n2)nc1C(=O)c1cccc(OC(F)(F)F)c1 [Compound 62]
- Plant response rating, Crabgrass [1, 12]: 2
- Crabgrass plant response rating ([1]; Rate 62 g/ha, Postemergence): 2
- Crabgrass plant response rating ([1]; Rate 125 g/ha, Postemergence): 3
- Plant response rating, Crabgrass ([1]; Rate 125 g/ha, Preemergence): 3
- Plant response rating, Crabgrass ([1]; Rate 250 g/ha, Postemergence): 5
- Plant response rating, Crabgrass ([1]; Rate 250 g/ha, Preemergence): 9
- Plant response rating, Crabgrass ([1]; Rate 500 g/ha, Postemergence): 8
- Plant response rating, Crabgrass ([1]; Rate 500 g/ha, Preemergence): 10
- Plant response rating, Wheat [2, 12]: 0
- Wheat plant response rating ([2]; Rate 62 g/ha, Postemergence): 1
- Wheat plant response rating ([2]; Rate 125 g/ha, Postemergence): 2
- Plant response rating, Wheat ([2]; Rate 125 g/ha, Preemergence): 0
- Plant response rating, Wheat ([2]; Rate 250 g/ha, Postemergence): 2
- Plant response rating, Wheat ([2]; Rate 250 g/ha, Preemergence): 0
- Plant response rating, Wheat ([2]; Rate 500 g/ha, Postemergence): 3
- Plant response rating, Wheat ([2]; Rate 500 g/ha, Preemergence): 0
- Plant response rating, Cocklebur [3, 12]: 0
- Cocklebur plant response rating ([3]; Rate 62 g/ha, Postemergence): 2
- Cocklebur plant response rating ([3]; Rate 125 g/ha, Postemergence): 5
- Plant response rating, Cocklebur ([3]; Rate 125 g/ha, Preemergence): 0
- Plant response rating, Cocklebur ([3]; Rate 250 g/ha, Postemergence): 7
- Plant response rating, Cocklebur ([3]; Rate 500 g/ha, Postemergence): 7
- Plant response rating, Cocklebur ([3]; Rate 500 g/ha, Preemergence): 0
- Plant response rating, Rape (rape (Brassica napus); [12]): 0
- Rape plant response rating (rape (Brassica napus); Rate 62 g/ha, Postemergence): 2
- Rape plant response rating (rape (Brassica napus); Rate 125 g/ha, Postemergence): 2
- Plant response rating, Rape (rape (Brassica napus); Rate 125 g/ha, Preemergence): 1
- Plant response rating, Rape (rape (Brassica napus); Rate 250 g/ha, Postemergence): 2
- Plant response rating, Rape (rape (Brassica napus); Rate 250 g/ha, Preemergence): 2
- Plant response rating, Rape (rape (Brassica napus); Rate 500 g/ha, Postemergence): 3
- Plant response rating, Rape (rape (Brassica napus); Rate 500 g/ha, Preemergence): 3
- Plant response rating, Redroot pigweed [4, 12]: 8
- Redroot pigweed plant response rating ([4]; Rate 62 g/ha, Postemergence): 8
- Redroot pigweed plant response rating ([4]; Rate 125 g/ha, Postemergence): 9
- Plant response rating, Redroot pigweed ([4]; Rate 125 g/ha, Preemergence): 9
- Plant response rating, Redroot pigweed ([4]; Rate 250 g/ha, Postemergence): 9
- Plant response rating, Redroot pigweed ([4]; Rate 250 g/ha, Preemergence): 10
- Plant response rating, Redroot pigweed ([4]; Rate 500 g/ha, Postemergence): 10
- Plant response rating, Redroot pigweed ([4]; Rate 500 g/ha, Preemergence): 10
- Plant response rating, Nutsedge ([5]; Rate 62 g/ha, scale of 0 to 10): 0
- Nutsedge plant response rating ([5]; Rate 62 g/ha): 0
- Nutsedge plant response rating ([5]; Rate 125 g/ha): 0
- Plant response rating, Nutsedge ([5]; Rate 125 g/ha): 0
- Plant response rating, Nutsedge ([5]; Rate 250 g/ha): 0
- Plant response rating, Nutsedge ([5]; Rate 500 g/ha): 0
- Plant response rating, Corn (corn (Zea mays); [12]): 0
- Corn plant response rating (corn (Zea mays); Rate 62 g/ha, Postemergence): 1
- Corn plant response rating (corn (Zea mays); Rate 125 g/ha, Postemergence): 2
- Plant response rating, Corn (corn (Zea mays); Rate 125 g/ha, Preemergence): 0
- Plant response rating, Corn (corn (Zea mays); Rate 250 g/ha, Postemergence): 2
- Plant response rating, Corn (corn (Zea mays); Rate 250 g/ha, Preemergence): 1
- Plant response rating, Corn (corn (Zea mays); Rate 500 g/ha, Postemergence): 2
- Plant response rating, Corn (corn (Zea mays); Rate 500 g/ha, Preemergence): 2
- Plant response rating, Sugarbeets [6, 12]: 8
- Sugarbeets plant response rating ([6]; Rate 62 g/ha, Postemergence): 9
- Sugarbeets plant response rating ([6]; Rate 125 g/ha, Postemergence): 9
- Plant response rating, Sugarbeets ([6]; Rate 125 g/ha, Preemergence): 10
- Plant response rating, Sugarbeets ([6]; Rate 250 g/ha, Postemergence): 9
- Plant response rating, Sugarbeets ([6]; Rate 250 g/ha, Preemergence): 10
- Plant response rating, Sugarbeets ([6]; Rate 500 g/ha, Postemergence): 9
- Plant response rating, Sugarbeets ([6]; Rate 500 g/ha, Preemergence): 10
- Plant response rating, Velvetleaf [7, 12]: 1
- Velvetleaf plant response rating ([7]; Rate 62 g/ha, Postemergence): 2
- Velvetleaf plant response rating ([7]; Rate 125 g/ha, Postemergence): 2
- Plant response rating, Velvetleaf ([7]; Rate 125 g/ha, Preemergence): 2
- Plant response rating, Velvetleaf ([7]; Rate 250 g/ha, Postemergence): 2
- Plant response rating, Velvetleaf ([7]; Rate 250 g/ha, Preemergence): 2
- Plant response rating, Velvetleaf ([7]; Rate 500 g/ha, Postemergence): 3
- Plant response rating, Velvetleaf ([7]; Rate 500 g/ha, Preemergence): 7
- Plant response rating, Soybean (soybean (Glycine max); [12]): 0
- Soybean plant response rating (soybean (Glycine max); Rate 62 g/ha, Postemergence): 1
- Soybean plant response rating (soybean (Glycine max); Rate 125 g/ha, Postemergence): 1
- Plant response rating, Soybean (soybean (Glycine max); Rate 125 g/ha, Preemergence): 0
- Plant response rating, Soybean (soybean (Glycine max); Rate 250 g/ha, Postemergence): 1
- Plant response rating, Soybean (soybean (Glycine max); Rate 250 g/ha, Preemergence): 0
- Plant response rating, Soybean (soybean (Glycine max); Rate 500 g/ha, Postemergence): 2
- Plant response rating, Soybean (soybean (Glycine max); Rate 500 g/ha, Preemergence): 1
- Plant response rating, Blackgrass [8, 12]: 1
- Blackgrass plant response rating ([8]; Rate 62 g/ha, Postemergence): 1
- Blackgrass plant response rating ([8]; Rate 125 g/ha, Postemergence): 1
- Plant response rating, Blackgrass ([8]; Rate 125 g/ha, Preemergence): 1
- Plant response rating, Blackgrass ([8]; Rate 250 g/ha, Postemergence): 2
- Plant response rating, Blackgrass ([8]; Rate 250 g/ha, Preemergence): 1
- Plant response rating, Blackgrass ([8]; Rate 500 g/ha, Postemergence): 4
- Plant response rating, Blackgrass ([8]; Rate 500 g/ha, Preemergence): 5
- Ducksalad plant response rating [9, 13]: 0
- Ducksalad plant response rating [9, 14]: 0
- Plant response rating, Ducksalad ([9]; Rate 250 g/ha): 0
- Plant response rating, Ducksalad ([9]; Rate 500 g/ha): 2
- Rice plant response rating (rice (Oryza sativa); [13]): 0
- Rice plant response rating (rice (Oryza sativa); [14]): 0
- Plant response rating, Rice (rice (Oryza sativa); Rate 250 g/ha): 0
- Plant response rating, Rice (rice (Oryza sativa); Rate 500 g/ha): 0
- S. Flatsedge plant response rating [10, 13]: 3
- S. Flatsedge plant response rating [10, 14]: 6
- Plant response rating, S. Flatsedge ([10]; Rate 250 g/ha): 7
- Plant response rating, S. Flatsedge ([10]; Rate 500 g/ha): 8
- Barnyardgrass plant response rating [11, 13]: 1
- Barnyardgrass plant response rating [11, 14]: 2
- Plant response rating, Barnyardgrass ([11]; Rate 250 g/ha): 3
- Plant response rating, Barnyardgrass ([11]; Rate 500 g/ha): 4
